Where two headings read alike, the source gives them in different places.
Assays:
USP1/UAF1 enzyme = USP1/UAF1 enzyme (Homo sapiens, UniProt O94782); assay: USP1/UAF1 deubiquitination assay (ubiquitin-rhodamine 110 substrate); type: biochemical; conditions: read-out: USP1 IC50 (Ub-Rho)
Procedure, shortened: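 Cleavage of 150 nM ubiquitin-rhodamine 110 by 0.05 nM USP1/UAF1 was followed as fluorescence (Ex480/Em540, kinetic, 30 min) in Tris-HCl pH 7.8 buffer with EDTA, BSA, DTT and Tween-20. Compounds, top 10 μM, were preincubated with enzyme 10 min; % inhibition against no-enzyme and DMSO wells gave four-parameter IC50s.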

[1] = ADME solubility determination in PBS at pH 2.0 and pH 7.4; type: physicochemical; conditions: phosphate buffered saline, 25 °C, thermodynamic from solid
Description: Certain Compounds of the Disclosure were assessed for ADME solubility at pH 2.0 and pH 7.4.
Stock solutions were prepared by adding each compound to DMSO at a concentration of 10 mM. Samples were prepared by adding 50 μL of each stock solution to separate vials. The vials were loaded onto a 96-well rack and dried. 500 μL of Phosphate Buffered Saline (PBS) pH 7.4 or PBS pH 2.0 were added into each vial. The vials were then shaken at 25° C. and 1,100 rpm for 24 hours.
After 24 hours, the vials were centrifuged at 3220 G and 25° C. for 30 minutes. The supernatant fluid was analyzed by LC-MS/MS against a standard of known concentration. The solubility of each sample was then calculated using the equation below: […]
where DF is the dilution factor.

[2] = Liver microsomal metabolic stability, rat liver microsomes (RLM); conditions: rat, liver microsomes, t1/2 (min) in RLM, 1 μM compound, 1 mg/mL microsomes, NADPH
[3] = Liver microsomal metabolic stability, human liver microsomes (HLM); conditions: human, liver microsomes
[4] = pH 2, aqueous buffer, PBS pH 2.0, 25° C., read-out: Solubility at pH 2.0
[5] = pH 7.4, aqueous buffer, PBS pH 7.4, 25° C., read-out: Solubility at pH 7.4

Sequence of USP1/UAF1 enzyme (O94782 whole entry): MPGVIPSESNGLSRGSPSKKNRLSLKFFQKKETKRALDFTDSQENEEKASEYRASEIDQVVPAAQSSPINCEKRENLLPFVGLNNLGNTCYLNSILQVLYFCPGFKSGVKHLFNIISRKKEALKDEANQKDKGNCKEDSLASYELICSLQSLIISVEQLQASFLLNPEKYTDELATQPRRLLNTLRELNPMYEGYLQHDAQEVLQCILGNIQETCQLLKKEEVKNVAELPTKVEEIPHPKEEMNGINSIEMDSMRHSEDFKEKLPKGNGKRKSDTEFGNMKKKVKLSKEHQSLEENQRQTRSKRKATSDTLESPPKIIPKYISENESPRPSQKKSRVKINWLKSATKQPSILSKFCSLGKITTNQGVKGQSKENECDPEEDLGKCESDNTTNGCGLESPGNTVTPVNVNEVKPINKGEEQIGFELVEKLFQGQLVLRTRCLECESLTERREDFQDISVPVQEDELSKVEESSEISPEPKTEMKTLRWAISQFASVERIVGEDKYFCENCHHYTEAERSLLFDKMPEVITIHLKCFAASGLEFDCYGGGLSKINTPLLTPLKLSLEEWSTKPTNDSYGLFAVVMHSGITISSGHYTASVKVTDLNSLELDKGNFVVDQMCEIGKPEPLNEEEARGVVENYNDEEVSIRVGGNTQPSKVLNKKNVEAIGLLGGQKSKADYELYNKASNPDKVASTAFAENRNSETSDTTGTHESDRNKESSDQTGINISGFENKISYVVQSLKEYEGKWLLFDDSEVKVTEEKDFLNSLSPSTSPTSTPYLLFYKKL
Sequence of USP1/UAF1 enzyme (Q8TAF3 whole entry partner): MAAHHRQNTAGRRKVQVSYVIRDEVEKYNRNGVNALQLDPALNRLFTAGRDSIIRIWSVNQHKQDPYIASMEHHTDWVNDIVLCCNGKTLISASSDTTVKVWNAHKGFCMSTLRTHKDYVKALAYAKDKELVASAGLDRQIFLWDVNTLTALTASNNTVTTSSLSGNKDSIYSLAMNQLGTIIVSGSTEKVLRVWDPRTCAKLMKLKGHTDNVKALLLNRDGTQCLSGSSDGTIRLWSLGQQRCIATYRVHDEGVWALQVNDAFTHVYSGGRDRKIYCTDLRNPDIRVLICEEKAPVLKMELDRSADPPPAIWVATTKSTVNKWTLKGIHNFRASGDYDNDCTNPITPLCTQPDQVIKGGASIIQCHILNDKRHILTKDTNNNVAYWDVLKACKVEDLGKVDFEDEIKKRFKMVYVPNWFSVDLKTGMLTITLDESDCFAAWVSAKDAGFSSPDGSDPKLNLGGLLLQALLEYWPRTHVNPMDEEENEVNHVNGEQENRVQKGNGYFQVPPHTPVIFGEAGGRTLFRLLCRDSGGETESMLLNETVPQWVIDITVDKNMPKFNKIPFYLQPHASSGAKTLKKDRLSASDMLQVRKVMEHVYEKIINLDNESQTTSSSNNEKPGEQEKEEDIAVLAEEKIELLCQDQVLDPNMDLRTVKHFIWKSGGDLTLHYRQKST

Row | Compound | IC50 (USP1/UAF1 enzyme) | also measured
1 | COc1ncnc(C2CC2)c1-c1cc2n(n1)CCC(=O)N2Cc1ccc(-n2nc(C#N)cc2OC)c(F)c1 [Example 8, (4-((2-(4-cyclopropyl-6-methoxypyrimidin-5-yl)-5-oxo-6,7-dihydropyrazolo[1,5-a]pyrimidin-4(5H)-yl)methyl)-2-fluorophenyl)-5-methoxy-1H-pyrazole-3-carbonitrile] | 100 to 500 nM | solubility at 24 h [1, 4]: ≥ 10 µM; solubility at 24 h [1, 5]: < 10 µM; half-life at 1 μM [2]: > 25 min; half-life at 1 μM [3]: > 25 min
2 | CCn1cc(C(F)(F)F)nc1-c1ccc(CN2CCCn3nc(-c4c(Cl)cnn4C(C)C)cc32)cc1F [Example 60] | < 100 nM | solubility at 24 h [1, 4]: < 10 µM; solubility at 24 h [1, 5]: < 10 µM; half-life at 1 μM [2]: < 25 min; half-life at 1 μM [3]: < 25 min
3 | CC(C)n1ncc(Cl)c1-c1cc2n(n1)CCC(=O)N2Cc1ccc(-c2ccn(S(=O)(=O)N(C)C)n2)c(Cl)c1 [Example 320] | 100 to 500 nM | 
4 | CC(C)n1ccnc1-c1ccc(CN2C(=O)CCn3nc(-c4c(Cl)cnn4C(C)C)cc32)cc1Cl [Example 303] | 100 to 500 nM | 
5 | Cn1cc(C(F)(F)F)nc1-c1ccc(CN2C(=O)CCn3nc(-c4c(OC(F)F)ncnc4C4CC4)nc32)cc1 [Example 368, 2-(4-cyclopropyl-6-(difluoromethoxy)pyrimidin-5-yl)-4-(4-(1-methyl-4-(trifluoromethyl)-1H-imidazol-2-yl)benzyl)-6,7-dihydro-[1,2,4]triazolo[1,5-a]pyrimidin-5(4H)-one] | < 100 nM | 
6 | CCn1nc(C(F)(F)F)nc1-c1ccc(CN2C(=O)CCn3nc(-c4c(OC)ncnc4C4CC4)cc32)cc1 [Example 87] | > 500 nM | 
7 | CCn1cc(C(F)(F)F)nc1-c1ccc(CN2C(=O)CCn3nc(-c4c(Cl)cnn4CCO)cc32)cc1F [Example 163] | 100 to 500 nM | 
8 | CC(C)n1ncc(Cl)c1-c1cc2n(n1)CCC(=O)N2Cc1ccc(-c2nc(C(F)(F)F)cn2C)nc1 [Example 82] | 100 to 500 nM | 
9 | COc1ncnc(C2CC2)c1-c1cc2n(n1)CCC(=O)N2Cc1ccc(-n2nc(C#N)cc2OC)cc1 [Example 107] | 100 to 500 nM | 
10 | CCn1cc(C(F)(F)F)nc1-c1ccc(Cn2c(=O)c(C)cn3nc(-c4c(OC(F)F)ncnc4C4CC4)nc23)cc1 [Example 392, 2-(4-cyclopropyl-6-(difluoromethoxy)pyrimidin-5-yl)-4-(4-(1-ethyl-4-(trifluoromethyl)-1H-imidazol-2-yl)benzyl)-6-methyl-[1,2,4]triazolo[1,5-a]pyrimidin-5(4H)-one] | < 100 nM | 
11 | COc1ncnc(C2CC2)c1-c1cc2n(n1)CCC(=O)N2Cc1ccc(-c2nc(C(F)(F)F)cn2C)nc1 [Example 83] | > 500 nM | 
12 | CC(C)n1ncc(F)c1-c1cc2n(n1)CCC(=O)N2Cc1ccc(-c2nc(C(F)(F)F)cn2C)c(F)c1 [Example 21, 2-(4-fluoro-1-isopropyl-1H-pyrazol-5-yl)-4-(3-fluoro-4-(1-methyl-4-(trifluoromethyl)-1H-imidazol-2-yl)benzyl)-6,7-dihydropyrazolo[1,5-a]pyrimidin-5(4H)-one] | 100 to 500 nM | 
13 | COc1cnn(C(C)C)c1-c1cc2n(n1)CCC(=O)N2Cc1ccc(-c2nc(C(F)(F)F)cn2C(C)C)cc1 [Example 152] | 100 to 500 nM | 
14 | CCn1cc(C(F)(F)F)nc1-c1ccc(CN2C(=O)CCn3nc(-c4c(OC)ncnc4C4CC4)nc32)cc1OC(F)F [Example 192] | 100 to 500 nM | 
15 | CCn1cc(C(F)(F)F)nc1-c1ccc(CN2C(=O)CCn3nc(-c4c(F)cnn4C(C)C)cc32)cc1 [Example 85] | 100 to 500 nM | 
16 | COc1cccnc1-c1ccc(N[C@H]2CCCn3nc(-c4c(OC)ncnc4C4CC4)cc32)cc1Cl (single isomer, unassigned) [Example 254] | 100 to 500 nM | 
17 | COc1ncnc(C2CC2)c1-c1nc2n(n1)CCC(=O)N2C(C)c1ccc(-n2nc(C(F)(F)F)cc2OC)cc1 (centres unmarked) [Example 372, 2-(4-cyclopropyl-6-methoxypyrimidin-5-yl)-4-(1-(4-(5-methoxy-3-(trifluoromethyl)-1H-pyrazol-1-yl)phenyl)ethyl)-6,7-dihydro-[1,2,4]triazolo[1,5-a]pyrimidin-5(4H)-one] | < 100 nM | 
18 | CCn1cc(C(F)(F)F)nc1-c1ccc(CN2C(=O)CCn3nc(-c4c(OC)ncnc4OC)cc32)cc1 [Example 5, 2-(4,6-dimethoxypyrimidin-5-yl)-4-(4-(1-ethyl-4-(trifluoromethyl)-1H-imidazol-2-yl)benzyl)-6,7-dihydropyrazolo[1,5-a]pyrimidin-5(4H)-one] | 100 to 500 nM | 
19 | COc1ncnc(C2CC2)c1-c1nc2n(n1)CC(C)C(=O)N2Cc1ccc(-c2nc(C(F)(F)F)cn2C(C)CF)cc1 (centres unmarked) [Example 383, 2-(4-cyclopropyl-6-methoxypyrimidin-5-yl)-4-(4-(1-(1-fluoropropan-2-yl)-4-(trifluoromethyl)-1H-imidazol-2-yl)benzyl)-6-methyl-6,7-dihydro-[1,2,4]triazolo[1,5-a]pyrimidin-5(4H)-one] | 100 to 500 nM | 

Row | Compound | IC50 (USP1/UAF1 enzyme) | also measured
20 | Cc1nn(C)c(C)c1-c1ccc(CN2C(=O)CCn3nc(-c4c(Cl)cnn4C(C)C)cc32)cc1Cl [Example 289] | > 500 nM | 
21 | Cc1ccc(F)c(-c2ccc(CN3C(=O)CCn4nc(-c5c(Cl)cnn5C(C)C)cc43)cc2Cl)n1 [Example 282] | > 500 nM | 
22 | CC(C)n1ncc(Cl)c1-c1cc2n(n1)CCC(=O)N2Cc1ccc(-c2ncccc2OC(F)(F)F)c(Cl)c1 [Example 279] | > 500 nM | 
23 | [2H]C([2H])([2H])C([2H])([2H])n1cc(C(F)(F)F)nc1-c1ccc(NC2CCCn3nc(-c4c(OC)ncnc4C4CC4)cc32)cc1 (centres unmarked) [Example 389, 2-(4-cyclopropyl-6-methoxypyrimidin-5-yl)-N-(4-(1-(ethyl-d5)-4-(trifluoromethyl)-1H-imidazol-2-yl)phenyl)-4,5,6,7-tetrahydropyrazolo[1,5-a]pyridin-4-amine] | < 100 nM | 
24 | CC(CF)n1cc(C(F)(F)F)nc1-c1ccc(NC2CCCn3nc(-c4c(Cl)cnn4C(C)C)cc32)cc1 (centres unmarked) [Example 390, 2-(4-chloro-1-isopropyl-1H-pyrazol-5-yl)-N-(4-(1-(1-fluoropropan-2-yl)-4-(trifluoromethyl)-1H-imidazol-2-yl)phenyl)-4,5,6,7-tetrahydropyrazolo[1,5-a]pyridin-4-amine] | < 100 nM | 
25 | COc1ccc(-c2ccc(CN3C(=O)CCn4nc(-c5c(Cl)cnn5C(C)C)cc43)cc2Cl)nc1 [Example 285] | > 500 nM | 
26 | CC(C)n1ncc(Cl)c1-c1cc2n(n1)CCC(=O)N2Cc1ccc(OCc2ccccn2)cc1 [Example 226, 2-(4-chloro-1-isopropyl-1H-pyrazol-5-yl)-4-(4-(pyridin-2-ylmethoxy)benzyl)-6,7-dihydropyrazolo[1,5-α]pyrimidin-5(4H)-one] | 100 to 500 nM | 
27 | CCn1cc(C(F)(F)F)nc1-c1ccc(CN2C(=O)C(NC(C)=O)Cn3nc(-c4c(Cl)cnn4C(C)C)cc32)cc1 (stereo not drawn) [Example 234, N-(2-(4-chloro-1-isopropyl-1H-pyrazol-5-yl)-4-(4-(1-ethyl-4-(trifluoromethyl)-1H-imidazol-2-yl)benzyl)-5-oxo-4,5,6,7-tetrahydropyrazolo[1,5-α]pyrimidin-6-yl)acetamide] | 100 to 500 nM | 
28 | Cn1cc(C(F)(F)F)nc1-c1ccc(Cn2c(=O)ccn3nc(-c4c(OC(F)F)ncnc4C4CC4)nc23)cc1F [Example 385, 2-(4-cyclopropyl-6-(difluoromethoxy)pyrimidin-5-yl)-4-(3-fluoro-4-(1-methyl-4-(trifluoromethyl)-1H-imidazol-2-yl)benzyl)-[1,2,4]triazolo[1,5-a]pyrimidin-5(4H)-one] | < 100 nM | 
29 | COCCOc1cc(CN2C(=O)CCn3nc(-c4c(Cl)cnn4C(C)C)nc32)ccc1-c1nc(C(F)(F)F)cn1C(C)C [Example 167] | 100 to 500 nM | solubility at 24 h [1, 4]: < 10 µM; solubility at 24 h [1, 5]: < 10 µM
30 | CC(C)n1ncc(Cl)c1-c1cc2n(n1)CCC(=O)N2Cc1ccc(-c2ncnn3cccc23)c(Cl)c1 [Example 276] | 100 to 500 nM | 
31 | CCn1cc(C(F)(F)F)nc1-c1ccc(NC2CCCn3nc(-c4c(Cl)cnn4C(C)C)nc32)cc1 (stereo not drawn) [Example 256, 2-(4-chloro-1-isopropyl-1H-pyrazol-5-yl)-N-(4-(1-ethyl-4-(trifluoromethyl)-1H-imidazol-2-yl)phenyl)-5,6,7,8-tetrahydro-[1,2,4]triazolo[1,5-α]pyridin-8-amine] | 100 to 500 nM | 
32 | COCc1cccnc1-c1ccc(CN2C(=O)CCn3nc(-c4c(Cl)cnn4C(C)C)cc32)cc1Cl [Example 300] | 100 to 500 nM | 
33 | CCn1cc(C)nc1-c1ccc(CN2C(=O)CCn3nc(-c4c(Cl)cnn4C(C)C)cc32)cc1 [Example 134] | 100 to 500 nM | 
34 | CC(c1ccc(-n2nc(C(F)(F)F)cc2OCC(F)F)cc1)N1C(=O)CCn2nc(-c3c(Cl)cnn3C(C)C)nc21 (centres unmarked) [Example 215] | 100 to 500 nM | 
35 | CCn1cc(C(F)(F)F)nc1-c1ccc(CN2C(=O)CCn3nc(-c4c(OC)cnn4C(C)C)cc32)cc1 [Example 155] | 100 to 500 nM | 
36 | Cc1ccnnc1-c1ccc(CN2C(=O)CCn3nc(-c4c(Cl)cnn4C(C)C)cc32)cc1Cl [Example 278] | > 500 nM | 
37 | CC(C)n1cnc(-c2ccc(CN3C(=O)CCn4nc(-c5c(Cl)cnn5C(C)C)cc43)cc2Cl)c1 [Example 315] | > 500 nM | 

From patent publication US20230219965A1 (KSQ Therapeutics, Inc., priority 2020, published 2023)
